Reference: patent US8518980B2, “Treatment of Duchenne muscular dystrophy” (Summit Corporation PLC, priority 2006, dated 2013)

Tested on: Utrophin A promoter linked to a luciferase reporter gene (H2K/mdx/Utro A reporter cell line)
Assay: Luciferase reporter assay (murine H2K cells)
Details: for activity at 10 µM: Mus musculus, H2K mdx

Structure (SMILES) | activity at 10 µM | Activity (Table 2, luciferase level relative to control, final concentration of 10 μM)
Cc1ccc(S(=O)(=O)Nc2ccc3[nH]c(-c4ccco4)nc3c2)cc1 [Example 536, N-(2-(furan-2-yl)-1H-benzo[d]imidazol-5-yl)-4-methylbenzenesulfonamide] | < 200% | –
COc1ccc(-c2nc3cc([N+](=O)[O-])ccc3o2)cc1OC [Example 537, 2-(3,4-dimethoxyphenyl)-5-nitrobenzo[d]oxazole] | < 200% | –
Cc1ccc2nc(-c3cccc(NC(=O)c4ccco4)c3)[nH]c2c1 [Example 538, N-(3-(6-methyl-1H-benzo[d]imidazol-2-yl)phenyl)furan-2-carboxamide] | < 200% | –
Cc1cc(-c2nc3cc(Cl)ccc3o2)ccc1[N+](=O)[O-] [Example 539, 5-chloro-2-(3-methyl-4-nitrophenyl)benzo[d]oxazole] | < 200% | –
O=C(Nc1ccc(-c2nc3ccccc3[nH]2)cc1)c1ccc2c(c1)OCO2 [Example 540, N-(4-(1H-benzo[d]imidazol-2-yl)phenyl)benzo[d][1,3]dioxole-5-carboxamide] | < 200% | –
Cn1c(-c2ccc(Cl)cc2)nc2ccccc21 [Example 541, 2-(4-chlorophenyl)-1-methyl-1H-benzo[d]imidazole] | 201 to 300% | –
COc1ccc(-c2nc3ccccc3s2)cc1NC(C)=O [Example 542, N-(5-(benzo[d]thiazol-2-yl)-2-methoxyphenyl)acetamide] | 201 to 300% | –
CSc1ccc(-c2nc3ccccc3[nH]2)cc1 [Example 543, 2-(4-(methylthio)phenyl)-1H-benzo[d]imidazole] | 201 to 300% | –
Nc1ccc(-c2nc3ccc(N)cc3o2)cc1 [Example 544, 2-(4-aminophenyl)benzo[d]oxazol-6-amine] | 201 to 300% | –
Cc1ccc2nc(-c3ccc(NC(=O)c4ccccc4C(=O)O)cc3)sc2c1 [Example 545, 2-(4-(6-methylbenzo[d]thiazol-2-yl)phenylcarbamoyl)benzoic acid] | < 200% | –
CC1=NN(c2nc3ccccc3s2)C(=O)/C1=C(/C)NC1CC1 [Example 546, (Z)-1-(benzo[d]thiazol-2-yl)-4-(1-(cyclopropylamino)ethylidene)-3-methyl-1H-pyrazol-5(4H)-one] | < 200% | –
C(=C\c1nc2ccccc2[nH]1)/c1ccccc1 [Example 547, (E)-2-styryl-1H-benzo[d]imidazole] | 301 to 400% | –
Cc1ccc(C)c(OCc2nc3ccccc3[nH]2)c1 [Example 548, 2-((2,5-dimethylphenoxy)methyl)-1H-benzo[d]imidazole] | < 200% | –
CCOc1ccc(-c2nc3cc(N)ccc3o2)cc1 [Example 549, 2-(4-ethoxyphenyl)benzo[d]oxazol-5-amine] | < 200% | –
Nc1ccc(O)c(-c2nc3cc(N)ccc3s2)c1 [Example 550, 4-amino-2-(5-aminobenzo[d]thiazol-2-yl)phenol] | < 200% | –
CCc1ccc2oc(-c3cc(N)ccc3O)nc2c1 [Example 551, 4-amino-2-(5-ethylbenzo[d]oxazol-2-yl)phenol] | < 200% | –
c1ccc(NNc2nc3ccccc3s2)cc1 [Example 552, 2-(2-phenylhydrazinyl)benzo[d]thiazole] | < 200% | –
CCc1ccc2oc(-c3ccc(N)cc3)nc2c1 [Example 553, 4-(5-ethylbenzo[d]oxazol-2-yl)aniline] | > 401% | –
Cc1ccc2[nH]c(-c3ccccc3N)nc2c1 [Example 554, 2-(5-methyl-1H-benzo[d]imidazol-2-yl)aniline] | 301 to 400% | –

Structure (SMILES) | activity at 10 µM | Activity (Table 2, luciferase level relative to control, final concentration of 10 μM)
CCOc1ccc2nc(NC(=O)c3ccccc3)sc2c1 [Example 555, N-(6-ethoxybenzo[d]thiazol-2-yl)benzamide] | < 200% | –
CC(=O)Nc1ccc(-c2nc3cc(Cl)c(NC(C)=O)cc3[nH]2)cc1 [Example 556, N-(4-(6-acetamido-5-chloro-1H-benzo[d]imidazol-2-yl)phenyl)acetamide] | < 200% | –
Nc1ccc(Oc2ccc(-c3nc4ccccc4[nH]3)cc2)cc1 [Example 557, 4-(4-(1H-benzo[d]imidazol-2-yl)phenoxy)aniline] | > 401% | –
c1ccc(-c2ccc(-c3nc4ccccc4[nH]3)cc2)cc1 [Example 558, 2-(biphenyl-4-yl)-1H-benzo[d]imidazole] | < 200% | –
Cc1cc2nc(-c3cc(N)ccc3O)oc2cc1C [Example 559, 4-amino-2-(5,6-dimethylbenzo[d]oxazol-2-yl)phenol] | 301 to 400% | –
Nc1ccc2[nH]c(-c3ccc(Cl)cc3)nc2c1 [Example 560, 2-(4-chlorophenyl)-1H-benzo[d]imidazol-5-amine] | 301 to 400% | –
c1csc(-c2nc3cc4ccccc4cc3[nH]2)c1 [Example 561, 2-(thiophen-2-yl)-1H-naphtho[2,3-d]imidazole] | 301 to 400% | –
O=C(Nc1ccc(-c2nc3ccccc3[nH]2)cc1)c1ccco1 [Example 562, N-(4-(1H-benzo[d]imidazol-2-yl)phenyl)furan-2-carboxamide] | 301 to 400% | –
CCSc1nc2ccc(N)cc2s1 [Example 563, 2-(ethylthio)benzo[d]thiazol-6-amine] | 201 to 300% | –
Cc1ccc2nc(-c3ccc(NC(=O)C(C)C)cc3)oc2c1 [Example 564, N-(4-(6-methylbenzo[d]oxazol-2-yl)phenyl)isobutyramide] | < 200% | –
CC(C)c1ccc2oc(-c3ccc(N)cc3O)nc2c1 [Example 565, 5-amino-2-(5-isopropylbenzo[d]oxazol-2-yl)phenol] | 301 to 400% | –
Cc1c(N)cccc1-c1nc2cc(Cl)ccc2o1 [Example 566, 3-(5-chlorobenzo[d]oxazol-2-yl)-2-methylaniline] | < 200% | –
Cc1ccc(C(=O)Nc2nc3ccccc3s2)c(Cl)c1 [Example 567, N-(benzo[d]thiazol-2-yl)-2-chloro-4-methylbenzamide] | < 200% | –
Cc1ccc(-c2nc3ccccc3[nH]2)cc1NC(=O)C(F)(F)F [Example 568, N-(5-(1H-benzo[d]imidazol-2-yl)-2-methylphenyl)-2,2,2-trifluoroacetamide] | 301 to 400% | –
Nc1ccc2oc(-c3ccccc3F)nc2c1 [Example 569, 2-(2-fluorophenyl)benzo[d]oxazol-5-amine] | 301 to 400% | –
CCCCc1nc2cc(S(=O)(=O)CC)ccc2o1 [Example 570, 2-butyl-5-(ethylsulfonyl)benzo[d]oxazole] | < 200% | –
CCCc1nc2cc(S(=O)(=O)CC)ccc2o1 [Example 571, 5-(ethylsulfonyl)-2-propylbenzo[d]oxazole] | < 200% | –
CCc1nc2cc(S(=O)(=O)CC)ccc2o1 [Example 572, 2-ethyl-5-(ethylsulfonyl)benzo[d]oxazole] | < 200% | –
CCS(=O)(=O)c1ccc2ocnc2c1 [Example 573, 5-(ethylsulfonyl)benzo[d]oxazole] | < 200% | –

Structure (SMILES) | activity at 10 µM | Activity (Table 2, luciferase level relative to control, final concentration of 10 μM)
CCS(=O)(=O)c1ccc2oc(S)nc2c1 [Example 574, 5-(ethylsulfonyl)benzo[d]oxazole-2-thiol] | < 200% | –
CC(=O)Nc1cccc(-c2ccc3oc(-c4ccc(Cl)cc4)nc3c2)c1 [Example 575, N-(3-(2-(4-chlorophenyl)benzo[d]oxazol-5-yl)phenyl)acetamide] | > 401% | –
CCNC(=O)Nc1ccc2[nH]c(C(C)(C)C)cc2c1 [Example 576, 1-(2-tert-butyl-1H-indol-5-yl)-3-ethylurea] | < 200% | –
Nc1ccc2oc(-c3cccc4ccccc34)nc2c1 [Example 577, 2-(naphthalen-1-yl)benzo[d]oxazol-5-amine] | < 200% | –
CCCS(=O)(=O)c1ccc2oc(-c3ccc(Cl)cc3)nc2c1 [Example 578, 2-(4-chlorophenyl)-5-(propylsulfonyl)benzo[d]oxazole] | < 200% | –
Oc1ccc2nc(-c3ccc(Cl)cc3)oc2c1 [Example 579, 2-(4-chlorophenyl)benzo[d]oxazol-6-ol] | > 401% | –
Cc1ccc2[nH]c(-c3ccc(NC(=O)c4ccco4)cc3)nc2c1 [Example 580, N-(4-(5-Methyl-1H-benzo[d]imidazol-2-yl)phenyl)furan-2-carboxamide] | 301 to 400% | –
O=C(c1ccccc1)c1ccc2nc(-c3ccccc3)[nH]c2c1 [Example 581, Phenyl (2-phenyl-1H-benzo[d]imidazol-6-yl)methanone] | – | + (Up to 200% relative to control)
COc1ccc(-c2nc3ccccc3s2)cc1 [Example 582, 2-(4-Methoxyphenyl)benzo[d]thiazole] | > 401% | –
COc1ccc(-c2nc3ccccc3o2)cc1 [Example 583, 2-(4-Methoxyphenyl)benzo[d]oxazole] | 301 to 400% | –
COc1ccc(-c2nc3ccc([N+](=O)[O-])cc3o2)cc1 [Example 584, 2-(4-Methoxyphenyl)-6-nitrobenzo[d]oxazole] | 301 to 400% | –
O=C(Nc1ccc(-c2nc3ccccc3[nH]2)cc1)c1cccs1 [Example 585, N-(4-(1H-Benzo[d]imidazol-2-yl)phenyl)thiophene-2-carboxamide] | > 401% | –
COc1ccc(-c2nc3cc([N+](=O)[O-])ccc3[nH]2)cc1 [Example 586, 2-(4-Methoxyphenyl)-5-nitro-1H-benzo[d]imidazole] | 201 to 300% | –
O=C(Nc1ccc(-c2nc3ccccc3[nH]2)cc1)C1CCCO1 (stereo not drawn) [Example 587, N-(4-(1H-Benzo[d]imidazol-2-yl)phenyl)tetrahydrofuran-2-carboxamide] | 301 to 400% | –
Cc1ccc(-c2nc3ccccc3n2C)cc1 [Example 588, 1-Methyl-2-p-tolyl-1H-benzo[d]imidazole] | 301 to 400% | –
CC(=O)Nc1ccc(-c2nc3ccccc3o2)cc1 [Example 589, N-(4-(Benzo[d]oxazol-2-yl)phenyl)acetamide] | 301 to 400% | –
Cc1cc(C)c2nc(-c3ccc(N)cc3)oc2c1 [Example 590, 4-(4,6-Dimethylbenzo[d]oxazol-2-yl)aniline] | > 401% | –
CC(=O)Nc1ccc(-c2nc3ccccc3[nH]2)cc1 [Example 591, N-(4-(1H-Benzo[d]imidazol-2-yl)phenyl)acetamide] | 301 to 400% | –
Nc1cc(-c2nc3ccccc3s2)ccc1Cl [Example 592, 5-(Benzo[d]thiazol-2-yl)-2-chloroaniline] | > 401% | –
